{
  "source": "patent US20230132823A1",
  "about": "“BI-FUNCTIONAL COMPOUNDS AND METHODS FOR TARGETED UBIQUITINATION OF ANDROGEN RECEPTOR” (MONTELINO THERAPEUTICS, INC., priority 2020, published 2023)",
  "key": {"AR-FL and AR-V7 mRNA": {"tested_on": "AR-FL and AR-V7 mRNA", "assay": "mRNA levels of AR-FL and AR-V7 (quantitative PCR)", "format": "cell-based, human"}, "22Rv1": {"tested_on": "22Rv1", "assay": "22Rv1 cell proliferation assay (Experimental Example 3)", "format": "cell-based, human", "details": "for 22Rv1 cell count, % of control: 6 days", "protocol": "The human prostate cancer cell line, 22Rv1 has been reported to express a high level of AR-V7. […] Standard culture media was RPMI-1640 supplemented with 10% fetal bovine serum. The test compound initially was dissolved in DMSO at 50 mM. This stock solution was then diluted as needed for the indicated concentrations. […]\nCell Culture. Human CaP cell lines, LNCaP, 22Rv1, VCaP, PC3, and DU145 are obtained from the American Type Culture Collection (ATCC) and maintained in the standard culture media: RPMI-1640 supplemented with 10% fetal bovine serum (FBS). LNCaP, 22Rv1, and VCaP are androgen-responsive cell lines, while PC3 and DU145 are not. To establish SAT resistant CaP cell lines, LNCaP, 22Rv1, and VCaP are treated continuously with 10-50 μM abiraterone, apalutamide, darolutamide, or enzalutamide. After 3-6 months, stable cell lines are established and designated as LNCaP-Abi^R, LNCaP-Apa^R, LNCaP-Daro^R, LNCaP-Enz^R, VCaP-Abi^R, VCaP-Apa^R, VCaP-Daro^R, VCaP-Enz^R, 22Rv1-Abi^R, 22Rv1-Apa^R, 22Rv1-Daro^R and 22Rv1-Enz^R. Unless otherwise specified, the standard culture media for these SAT-resistant cell lines included 10 μM of their respective SAT. For the proteasome inhibitor study, the inhibitors MG132 and Epoxomicin are used. The E3 ligase inhibitors Heclin, Nutlin 3a, Thalidomide, and VH298 are used. Cell lines obtained from ATCC are confirmed by checking their morphology using optical microscopy, establishing baselines for cell proliferation, verifying species of origin using isoenzymology, and characterizing the cell's DNA fingerprint using short tandem repeat (STR) profiling. Mycoplasma contamination is also assessed using a PCR based detection system."}, "PC3": {"tested_on": "PC3", "assay": "PC3 cell proliferation", "format": "cell-based, human", "details": "AR-negative cell line; 1 μM", "protocol": "The human prostate cancer cell line, 22Rv1 has been reported to express a high level of AR-V7. Thus, 22Rv1 was seeded at 50,000 cells/well on a 24-well plate in quadruplicates and treated with test compound in concentrations ranging up to 20 μM for four days. Standard culture media was RPMI-1640 supplemented with 10% fetal bovine serum. The test compound initially was dissolved in DMSO at 50 mM. This stock solution was then diluted as needed for the indicated concentrations. At the end of the four-day period, cells were harvested using 1% trypsin and counted using an automated cell counter.\nCell Culture. Human CaP cell lines, LNCaP, 22Rv1, VCaP, PC3, and DU145 are obtained from the American Type Culture Collection (ATCC) and maintained in the standard culture media: RPMI-1640 supplemented with 10% fetal bovine serum (FBS). LNCaP, 22Rv1, and VCaP are androgen-responsive cell lines, while PC3 and DU145 are not. To establish SAT resistant CaP cell lines, LNCaP, 22Rv1, and VCaP are treated continuously with 10-50 μM abiraterone, apalutamide, darolutamide, or enzalutamide. […] Mycoplasma contamination is also assessed using a PCR based detection system."}, "AR-V7": {"molecular_target": "T1, AR-V7 (Homo sapiens, UniProt P10275)", "T1 sequence (P10275 1-644 isoform P10275-3)": "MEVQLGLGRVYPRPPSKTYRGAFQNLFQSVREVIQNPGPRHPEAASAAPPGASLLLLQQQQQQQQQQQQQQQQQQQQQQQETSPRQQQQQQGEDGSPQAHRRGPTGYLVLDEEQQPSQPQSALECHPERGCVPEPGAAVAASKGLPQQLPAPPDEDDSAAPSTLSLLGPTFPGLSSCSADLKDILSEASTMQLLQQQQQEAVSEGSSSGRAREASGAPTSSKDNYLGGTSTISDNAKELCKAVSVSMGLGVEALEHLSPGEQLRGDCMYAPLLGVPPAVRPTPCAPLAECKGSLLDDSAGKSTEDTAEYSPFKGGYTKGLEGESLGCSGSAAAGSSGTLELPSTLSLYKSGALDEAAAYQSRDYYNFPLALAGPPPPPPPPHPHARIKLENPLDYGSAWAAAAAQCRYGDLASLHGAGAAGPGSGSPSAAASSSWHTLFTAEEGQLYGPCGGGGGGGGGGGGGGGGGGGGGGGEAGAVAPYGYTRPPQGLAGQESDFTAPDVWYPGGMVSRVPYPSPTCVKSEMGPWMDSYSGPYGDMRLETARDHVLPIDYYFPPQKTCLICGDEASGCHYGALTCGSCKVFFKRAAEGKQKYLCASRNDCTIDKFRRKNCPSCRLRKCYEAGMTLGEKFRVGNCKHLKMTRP", "assay": "Immunoblot of AR-V7 polyubiquitination in 22Rv1 pretreated with MG132", "format": "cell-based", "set-up": "endogenous in cells; host or cells: 22Rv1", "details": "22Rv1 pretreated with MG132 two hours; compound 1 μM", "protocol": "Immunoblot Analysis. CaP cells are collected and lysed with the lysis buffer (20 mM Tris-HCl (pH 7.5), 150 mM NaCl, 1 mM Na2EDTA, 1 mM EGTA, 1% Triton, 2.5 mM sodium pyrophosphate, 1 mM beta-glycerophosphate, 1 mM Na3VO4, and 1 μg/ml leupeptin) containing 1 mM phenylmethylsulfonyl fluoride (PMSF). Cell lysates are then centrifuged and protein in the supernatant is quantified. After separating 25-50 μg of protein using SDS-PAGE, samples are incubated with AR-V7, GR, PR, ERα, AR-FL, ubiquitin, or β-actin antibodies. For AR-V7, AR-FL, PR, GR, and ERα immunoblots, primary antibody is diluted 1:1000 in 5% skim milk. For the β-actin immunoblot, 1:10000 diluted primary antibody is used. All membranes are incubated overnight at 4° C. Following the incubation with appropriate secondary antibody, immunoblots are analyzed using SuperSignal West Femto Maximum Sensitivity Substrate (ThermoFisher).\nTo determine the ubiquitination status of AR proteins, 22Rv1 is pretreated with MG132 for two hours prior to adding Compound of Example 16 (at 1 μM)."}, "[1]": {"tested_on": "22Rv1 cells transfected with AR-V7 or AR-FL", "assay": "Proliferation of 22Rv1 cells transfected with AR-V7 and/or AR-FL", "format": "cell-based, human", "details": "1 μM", "excerpt": "Transient Transfections. One μg of a plasmid containing cDNA of AR-V7 or AR-FL is transfected into indicated the CaP cell lines on 6-well plates. Three μl of lipofectamine 3000 is used for each transfection."}},
  "data": [
    {"smiles": "Cc1ncsc1-c1ccc([C@H](C)NC(=O)[C@@H]2C[C@@H](O)CN2C(=O)[C@@H](NC(=O)CCCCNC(=O)COc2c(-c3csc(N4CCOCC4)n3)ccc(F)c2F)C(C)(C)C)cc1", "note": "[Example 16, (2S,4R)-1-((S)-2-(5-(2-(2,3-difluoro-6-(2-morpholinothiazol-4-yl)phenoxy)acetamido)pentanamido)-3,3-dimethylbutanoyl)-4-hydroxy-N-((S)-1-(4-(4-methylthiazol-5-yl)phenyl)ethyl)pyrrolidine-2-carboxamide]", "values": [
      {"measurement": "effect on mRNA levels of AR-FL and AR-V7", "setting": "AR-FL and AR-V7 mRNA", "value": "no major effect"},
      {"measurement": "22Rv1 cell count, % of control", "setting": "22Rv1; 0.01 μM", "value": "approximately 90 % of control"},
      {"measurement": "22Rv1 cell count, % of control", "setting": "22Rv1; 0.1 μM", "value": "~70 % of control"},
      {"measurement": "22Rv1 cell count, % of the control (side to side cell line comparison)", "setting": "22Rv1; 1 μM", "value": "approximately 40 % of the control"},
      {"measurement": "22Rv1 cell count, % of control", "setting": "22Rv1; 1 μM", "value": "~65 % of control"},
      {"measurement": "effect on PC3 cells", "setting": "PC3", "value": "not affected"},
      {"measurement": "start of polyubiquitination of AR-V7 after treatment", "setting": "AR-V7", "value": 6, "unit": "h"},
      {"measurement": "inhibitory effect after transfection of both AR-V7 and AR-FL into 22Rv1 cells", "setting": "[1]; both transfected", "value": "completely abrogated"},
      {"measurement": "inhibitory effect after transfecting AR-V7 or AR-FL into 22Rv1 cells", "setting": "[1]; single transfection", "value": "partial resistance"}
    ]}
  ]
}
